What was measured:
[1] = Plasma PK and bioavailability, iv versus po, in mice; assay type: in vivo
Procedure: FIG. 5. Plasma concentrations of TP70 following iv or po administration (25 mg/Kg; iv, n=3 in each timepoint; or po, n=3 in each timepoint). Plasma concentrations were plotted against time post-dosing.
Since the drug will ultimately be administered orally, the bioavailability (F) of TP70 was determined in mice (male C57BL/6, 4 to 6 months old, n=3/group). Each mouse was treated with TP 70 (25 mg/kg). The drug was initially dissolved in pure dimethyl sulfoxide (DMSO) and then diluted with 0.5% hydroxypropylcellulose (HPC) in distilled water in a final solution containing 2% DMSO. At different time points about 50 μl plasma was sampled via tail cut for blood collection with a tube treated with ethylenediaminetetraacetic acid (EDTA). The compound was measured using HPLC/mass spectrometer. The maximal plasma concentration following iv administration is 16.6±6.1 μg/ml (equivalent to 42 μM) and po is 6.9±0.17 μg/ml (equivalent to 17 μM).

APP/PS1 mice = experiment: SmartCage homecage activity and locomotion in APP/PS1 mice; assay type: in vivo; conditions: Day 7, TP70 in drinking water, treatment versus control group
Procedure: FIGS. 8A-8D. Effects of TP70 on homecage activity and locomotion in homecage monitored using the SmartCage™ system A. Active time in each time block during 24 hours. B. Travel distance in each time block during 24 hours. C. Travel speed in each time block during 24 hours. D. Rearing activity in each time block during 24 hours. The gray shadow indicates dark phase of a 12:12 light/dark cycle.
The validated SmartCage™ system that enables automated, objective, quantitative and long-term evaluation of neuropsychological endpoints at the animal's home cages (Flores, et al., IEEE Trans Biomed Eng, 2007, 54:225-233; Xiong, et al., Stroke, 2011, 42:2026-2032; Carter, et al., Nat Neurosci, 2010, 13:1526-1533; Khroyan, et al., Clin Exp Pharmacol Physiol, 2012, 39:614-622) was used to complement other special individual learning and memory tests (Shineman, et al., Alzheimers Res Ther, 2011, 3:28; Hamann, et al., Neuropsychologia, 2002, 40:1187-1195; Aultman, et al., Psychopharmacology (Berl), 2001, 153:353-364; Ashe, K H, J Alzheimers Dis, 2006, 9:123-126). […] Homecage activity and locomotion were assessed on Day 7 after the treatment and the blood samples were collected from each mouse after the assessment of general behavior. […]

[2] = log P by octanol/water partition; assay type: physicochemical
ACAT = ACAT inhibition; assay type: biochemical; conditions: read-out: half maximal inhibitory concentration (IC50), ACAT
Source text: It has been reported that an induction of cholesterol efflux resulting in a reduction of Aβ formation/deposition in vitro and in vivo (Kim, et al., J Alzheimers Dis, 2009, 16:121-131). For additional Detail, see the attached manuscript entitled, “Inhibition of Acyl-CoA: Cholesterol Acyltransferase (ACAT), Overexpression of Cholesterol Transporter Gene, and Protection of Amyloid β (Aβ) Oligomers-Induced Neuronal Cell Death by Tricylic Pyrone Molecules” which is incorporated herein.

[3] = Plasma and organ distribution after ip administration in mice; assay type: in vivo; conditions: 25 mg/kg ip
Procedure: FIG. 4. Concentrations or content of TP70 in the plasma and 7 key organs following ip administration of TP70 (25 mg/kg) in mice (n=3 each data point).
In addition to determination of drug concentrations in plasma and the brain, drug content in other six key organs, the heart, liver, lungs, intestine, and kidneys of mice (male C57BL/6, 3 months, Harlan, n=3 per timepoint) were also assessed in a separate pharmacokinetic (PK) study of TP70 (25 mg/kg, ip,) using HPLC and mass spectrometry.

In the case of `Cc1cc2c(c(=O)o1)C=C1CCC(C(C)CNCc3ccc(O)cc3)CC1O2` (centres unmarked) [TP70], the “Average concentration of TP70 in plasma” value ([1]; iv route, 5 min) is reported as 16.6 ± 6.1 mg/L, the “Average concentration of TP70 in plasma” value ([1]; iv route, 15 min) is reported as 10.2 ± 4 mg/L and the “Average concentration of TP70 in plasma” value ([1]; iv route, 30 min) is reported as 8.2 ± 3.5 mg/L. For the same compound, the “Average concentration of TP70 in plasma” value ([1]; iv route, 60 min) was 3.7 ± 0.8 mg/L, the “Average concentration of TP70 in plasma” value ([1]; iv route, 120 min) was 2.02 ± 0.6 mg/L and the “Average concentration of TP70 in plasma” value ([1]; iv route, 240 min) was 1.8 ± 0.5 mg/L. For the same compound, the “Average concentration of TP70 in plasma” value ([1]; iv route, 360 min) was 0.9 ± 0.3 mg/L, the F ([1]; iv route, fraction) was 1 and the “Area under the curve (AUC)” value ([1]; iv, 25 mg/kg) was 989. The maximal plasma concentration ([1]; iv, 25 mg/kg) was 16.6 ± 6.1 µg/mL, the “maximal plasma concentration (equivalent)” value ([1]; iv, 25 mg/kg) was 42 µM and the t1/2 ([1]; iv, 25 mg/kg) was “around 30 min”. For the same compound, the “Average concentration of TP70 in plasma” value ([1]; oral gavage (po) route, 15 min) was 2.8 ± 0.09 mg/L, the “Average concentration of TP70 in plasma” value ([1]; oral gavage (po) route, 30 min) was 3.9 ± 0.14 mg/L and the “Average concentration of TP70 in plasma” value ([1]; oral gavage (po) route, 60 min) was 6.9 ± 0.17 mg/L. For the same compound, the “Average concentration of TP70 in plasma” value ([1]; oral gavage (po) route, 120 min) was 4.2 ± 0.19 mg/L, the “Average concentration of TP70 in plasma” value ([1]; oral gavage (po) route, 240 min) was 2.4 ± 1.37 mg/L and the “Average concentration of TP70 in plasma” value ([1]; oral gavage (po) route, 360 min) was 1.2 ± 0.23 mg/L. For the same compound, the “bioavailability (F)” value ([1]; po versus iv, 25 mg/kg) was 68%, the “Area under the curve (AUC)” value ([1]; po, 25 mg/kg) was 678 and the maximal plasma concentration ([1]; po, 25 mg/kg) was 6.9 ± 0.17 µg/mL. The “maximal plasma concentration (equivalent)” value ([1]; po, 25 mg/kg) was 17 µM, the “homecage activity and locomotion” value (APP/PS1 mice) was “no significant differences” and the “log P” value [2] was 1.90. The IC50 (ACAT) was 0.3 µM, the “distribution in the heart” value [3] was “lowest distribution in the heart” and the “distribution in the brain” value ([3]; mice) was “higher distribution in the brain than in the plasma and all other organs examined, except for kidneys”. For the same compound, the “disposition in the kidneys” value ([3]; two hours post dosing) was “highest disposition in the kidneys” and the distribution in intestines ([3]; two hours post dosing) was “low distribution in intestines”.

— patent publication US9802962B2, “Tricyclic pyrone compounds reduce amyloid beta aggregates” (priority 2013, dated 2017)
